{"source": "patent US20150087673A1", "about": "“METHODS FOR USING AND BIOMARKERS FOR AMPK-ACTIVATING COMPOUNDS” (RIGEL PHARMACEUTICALS, INC., priority 2013, published 2015)", "key": {"AMPK [1]": {"tested_on": "AMPK", "experiment": "AMPK activation in liver and muscle lysates after a single oral administration", "type": "in vivo, mouse", "conditions": "normal C57BL/6J mice, single oral administration of 10 mg/kg"}, "db/db mice [2]": {"tested_on": "db/db mice", "experiment": "[U-13C]-D-glucose tracer analysis in db/db mice", "type": "in vivo, mouse", "experimental": "Male db/db mice (8 weeks) were orally gavaged once daily with vehicle, 5 mg/kg compound 309, or 10 mg/kg compound 309. Thirty minutes after dosing at day 8, 0.5 mg/kg of the metabolic tracer was administered, either via intraperitoneal injection for [U-^13C]-glucose or oral gavage for [U-^13C]-palmitate, followed by collection of liver, muscle, adipose tissue, and plasma at the timepoints indicated in the figure legends. Frozen samples were sent to SiDMAP, LLC (Los Angeles, Calif.) for isotope tracer analysis [Boros L G, Huang D, Heaney A P (2012) Fructose Drives Glucose via Direct Oxidation and Promotes Palmitate/Oleate Co-Release from Hepg2 Cells: Relevance with the Randle Cycle. Metabolomics 2: 107-115; Huang J, Simcox J, Mitchell T C, Jones D, Cox J, et al. (2013) Iron regulates glucose homeostasis in liver and muscle via AMP-activated protein kinase in mice. FASEB J.]. [U-^13C]-D-glucose and [U-^13C]-palmitate were from Sigma-Aldrich. Sample preparation, analysis, and informatics were performed on blinded samples. Statistical analyses were performed using the 2-tailed Student t test.\nA more sensitive [U-^13C]-D-glucose tracer analysis was carried out as follows: Non-fasted db/db mice treated with vehicle or compound 309 for one week were given an intraperitoneal injection of an [U-^13C]-D-glucose tracer (0.5 mg/kg) followed by measurements of tracer carbon incorporation into various metabolites after glucose injection."}, "db/db mice [3]": {"tested_on": "db/db mice", "experiment": "[U-13C]-palmitate tracer analysis (13CO2/12CO2 enrichment) in db/db mice", "type": "in vivo, mouse", "excerpt": "The elevated levels of BHBA detected by the global metabolite profiling are an indirect indicator of an increase in lipid oxidation. […] Appearance of ^13CO2 occurs via β-oxidation of the labeled palmitate to release ^13C-acetyl CoA, which must pass through one round of the TCA cycle before the labeled carbon can be given off as ^13CO2. An increased β-oxidation rate will result in a corresponding increase in ^13CO2 enrichment. In agreement with the elevation in relative BHBA levels detected in liver, adipose, and skeletal muscle tissues, an increase in ^13CO2 enrichment is observed for compound 309 treatment across all three tissues at both 60 and 120 minutes after palmitate administration. Ratios of ^13CO2 to ^12CO2 were higher for all treatment groups, including the vehicle, at 120 minutes compared to 60 minutes after palmitate feeding (FIG. 2). This time-dependent elevation was due to the slow absorption kinetics of the orally administered tracer suspension.\nMale db/db mice (8 weeks) were orally gavaged once daily with vehicle, 5 mg/kg compound 309, or 10 mg/kg compound 309. Thirty minutes after dosing at day 8, 0.5 mg/kg of the metabolic tracer was administered, either via intraperitoneal injection for [U-^13C]-glucose or oral gavage for [U-^13C]-palmitate, followed by collection of liver, muscle, adipose tissue, and plasma at the timepoints indicated in the figure legends. Frozen samples were sent to SiDMAP, LLC (Los Angeles, Calif.) for isotope tracer analysis [Boros L G, Huang D, Heaney A P (2012) Fructose Drives Glucose via Direct Oxidation and Promotes Palmitate/Oleate Co-Release from Hepg2 Cells: Relevance with the Randle Cycle. […]\nThe elevated levels of BHBA detected by the global metabolite profiling are an indirect indicator that compound 309 treatment increases lipid oxidation. […] In agreement with the elevation in relative BHBA levels detected in liver, adipose, and skeletal muscle tissues, an increase in ^13CO2 enrichment is observed for compound 309 treatment across all three tissues at both 60 and 120 minutes after palmitate administration. […]"}, "AMPK [4]": {"tested_on": "AMPK", "experiment": "AMPK activation assay (enzyme-linked immunosorbent assay)", "type": "cell-based", "in_short": "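Compounds were tested for their capacity to activate the kinase using standard, commercially available kit reagents and procedures.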"}}}
{"smiles": "COc1ccc(C(=O)C2CCN(C(=O)c3ccc(C(=O)NC4CCN(Cc5ccc(C#N)cc5)CC4)cn3)CC2)cc1", "note": "[Compound 309, N-(1-(4-cyanobenzyl)piperidin-4-yl)-6-(4-(4-methoxybenzoyl)piperidine-1-carbonyl)nicotinamide]", "values": [{"measurement": "AMPK activation in liver and muscle lysates", "setting": "AMPK [1]", "value": "robust AMPK activation"}, {"measurement": "skeletal muscle palmitate and myristate levels", "setting": "db/db mice [2]; after saponification of muscle acylglycerols and acylcarnitines", "value": "significant decreases"}, {"measurement": "13CO2 release (glucose oxidation via the TCA cycle)", "setting": "db/db mice [2]; all three tissues", "value": "increased"}, {"measurement": "13CO2 enrichment after [U-13C]-D-glucose", "setting": "db/db mice [2]; liver and adipose tissues, 60 and 90 minutes post-tracer", "value": "clear dose-dependent increase"}, {"measurement": "13C-labeled fraction of palmitate", "setting": "db/db mice [2]; plasma or liver, data not shown", "value": "no increase"}, {"measurement": "dose-dependence of complete glucose tracer oxidation", "setting": "db/db mice [2]; skeletal muscle", "value": "no dose-dependence"}, {"measurement": "13C-labeled fatty acids in palmitate and myristate pools", "setting": "db/db mice [2]; skeletal muscle, 60 and 90 minutes", "value": "significantly enriched"}, {"measurement": "13CO2 enrichment after [U-13C]-D-glucose vs vehicle", "setting": "db/db mice [2]; skeletal muscle, 60 minutes", "value": "no differences"}, {"measurement": "level of 13C-labeled myristate compared to vehicle", "setting": "db/db mice [2]; skeletal muscle, 90 minute timepoint", "value": "two-fold higher"}, {"measurement": "tracer oxidation (13CO2 enrichment) after [U-13C]-D-glucose", "setting": "db/db mice [2]; skeletal muscle, 90 minutes", "value": "clearly sustained"}, {"measurement": "13CO2 enrichment after [U-13C]-palmitate", "setting": "db/db mice [3]; liver, adipose and skeletal muscle, 60 and 120 minutes after palmitate administration, treated one week", "value": "increase"}, {"measurement": "fatty acid oxidation", "setting": "db/db mice [3]; liver, skeletal muscle and adipose tissue, chronic treatment of db/db mice", "value": "directly upregulated"}, {"measurement": "dose-dependence of 13CO2 enrichment after [U-13C]-palmitate", "setting": "db/db mice [3]; skeletal muscle, 5 and 10 mg/kg", "value": "no dose-dependence"}, {"measurement": "EC50", "setting": "AMPK [4]", "value": "< 500", "unit": "nM"}]}
